According to article PMC3898417, “A peptide derived from TIMP-3 inhibits multiple angiogenic growth factor receptors and tumour growth and inflammatory arthritis in mice” (Angiogenesis, 2013):
Blank lines part the entries; values can stand above or below the molecule they belong to. Bridges are numbered along the chain shown (N, C = ends). Where no end group is shown, it is not given here.

Experiments:
HuDMEC [1] = experiment: VEGF165-induced cell migration (Boyden chamber); type: cell-based, human; conditions: 0.5 nM VEGF165, 4.5 h, up to 1 μM, n = 4
Method: The ability of the p700 peptide to inhibit VEGF165-induced EC migration was determined using a multi-well Boyden chamber (Neuro Probe, Gaithersburg, USA). Briefly, serum-starved HuDMEC were treated with p700 for 1 h, washed and plated in the upper chamber in EBM-2 medium containing 1 % FCS on an 8 μm fibronectin pre-coated polycarbonate filter (Neuro Probe, Gaithersburg, USA). The cells were then left to migrate across the filter for 4.5 h at 37 °C with media containing 0.5 nM VEGF165 in the presence and absence of inhibitors in the lower chamber. After the incubation, non-migrating cells on the upper side of the membrane were scraped off and the migrated cells were stained with Hema Gurr® rapid staining kit (Merck Chemicals Ltd, Nottingham, UK). Migrated cells were counted using a light microscope at 160× magnification in three random fields per well of three separate wells.

[2] = system: collagen-induced arthritis; experiment: Collagen-induced-arthritis mouse (CIA) model; type: in vivo, DBA-1 mice; conditions: 2.5 mg/kg i.v. every 2 days
HuDMEC [3] = experiment: VEGF165-induced cell proliferation (BrdU); type: cell-based, human; conditions: peptide 1 h then 0.5 nM VEGF165 24 h, up to 1 μM, n = 4
Method: Human dermal microvascular endothelial cells were serum-starved followed by incubating with p700 peptide for 1 h and then 0.5 nM of VEGF165 for 24 h at 37 °C. Cell proliferation was determined using a BrdU cell proliferation assay kit (Merck Chemicals Ltd, Nottingham, UK).

EGFR = experiment: Phospho-receptor tyrosine kinase array; type: cell-based, human; conditions: HuDMEC, 100 ng/ml EGF 5 min, phospho-RTK array, preliminary screen, data not shown
Method: (§1) Serum-deprived HuDMEC were pre-treated with test peptides for 1 h and then stimulated with growth factors (0.5 nM VEGF165, 1.6 nM bFGF, 1 nM PDGF-BB, 1.6 nM hepatocyte growth factor, 100 ng/ml EGF or 100 ng/ml insulin-like growth factor I) for 5 min. Cells were then lysed and phosphorylated proteins detected using (a) a receptor tyrosine kinase array (Human Phospho-Receptor Tyrosine Kinase Array Kit, R&D Systems Ltd.) or (b) sandwich ELISA (Duo-sets, R&D Systems Ltd.) according to the manufacturer’s instructions.

VEGFR-1 [4] = experiment: Phosphorylation RTK sandwich ELISA; type: cell-based, human; conditions: HuDMEC, peptide 1 h, ligand 5 min, n = 3
Method: as §1

FGFR-1 = experiment: Phosphorylation RTK sandwich ELISA; type: cell-based, human; conditions: HuDMEC, peptide 1 h, ligand 5 min, n = 3
Method: as §1

PDGFR-α = experiment: Phosphorylation RTK sandwich ELISA; type: cell-based, human; conditions: HuDMEC, peptide 1 h, ligand 5 min, n = 3
Method: as §1

VEGFR-3 = experiment: Phosphorylation RTK sandwich ELISA; type: cell-based, human; conditions: HuDMEC, peptide 1 h, ligand 5 min, n = 3
Method: as §1

FGFR-3 = experiment: Phosphorylation RTK sandwich ELISA; type: cell-based, human; conditions: HuDMEC, peptide 1 h, ligand 5 min, n = 3
Method: as §1

VEGFR-2 [5] = experiment: Phosphorylation RTK sandwich ELISA; type: cell-based, human; conditions: HuDMEC, peptide 1 h, ligand 5 min, n = 3
Method: as §1

FGFR-2α = experiment: Phosphorylation RTK sandwich ELISA; type: cell-based, human; conditions: HuDMEC, peptide 1 h, ligand 5 min, n = 3
Method: as §1

FGFR-4 = experiment: Phosphorylation RTK sandwich ELISA; type: cell-based, human; conditions: HuDMEC, peptide 1 h, ligand 5 min, n = 3
Method: as §1

HGFR = experiment: Phosphorylation RTK sandwich ELISA; type: cell-based, human; conditions: HuDMEC, peptide 1 h, 1.6 nM hepatocyte growth factor 5 min
Method: as §1

[6] = system: insulin-like growth factor 1 receptor; experiment: Phosphorylation RTK sandwich ELISA; type: cell-based, human; conditions: HuDMEC, peptide 1 h, 100 ng/ml insulin-like growth factor I 5 min
Method: as §1

PI3K = experiment: Immunoblotting of VEGF165-induced PI3K phosphorylation; type: cell-based, human; conditions: 1 μM, HuDMEC, western blot; n = 3
Method: (§2) Transfected HUVEC or HuDMEC pre-treated with 1 μM test peptides for 1 h, were stimulated with 0.5 nM of VEGF165 for 2, 5 or 10 min. Cells were lysed and phosphorylated proteins detected by western blotting using phospho-specific antibodies to either VEGFR-2, Erk1/2 or PI3K (New England BioLabs, UK). Band intensities were quantified using Bio-Rad Quantity One Analysis software and normalized using U, un-stimulated control, as 0 %; and VEGF165, positive control, as 100 % of protein phosphorylation.

HuDMEC [7] = experiment: Tube formation assay on Matrigel; type: cell-based, human; conditions: for inhibition of VEGF165-induced HuDMEC tube formation / inhibition of tubule formation in response to VEGF121: 1 μM peptide, n = 4; for inhibition of VEGF165-induced HuDMEC tube formation: 0.5 nM VEGF165, 6 h; for inhibition of bFGF-induced tubule formation: 1.6 nM bFGF
Method: Serum-starved HuDMEC were seeded onto Matrigel™ matrix pre-coated 96 well plates (BD Biosciences, Cowley, Oxford, UK) at a density of 1 × 10^4 cells/well in 100 μl EBM-2 medium. Peptides were then added into each corresponding well and incubated for 1 h at 37 °C, followed by stimulated with growth factors, 0.5 nM VEGF165, 1 nM PDGF-BB or 1.6 nM bFGF, to induce tubule development. The tubules formed were examined 6 h after stimulation under a low power (40×) light microscope. Images were captured and analysed by measuring the average tubule length using ImageJ software (National Institutes of Health, USA).

[8] = system: primary human synovial cells (SC); experiment: In vitro synovial cell invasion assay (GFR-Matrigel); type: cell-based; conditions: rheumatoid arthritis synovial cells, peptide 1 h, 100 ng/ml PDGF-BB 22 h; n = 3
Method: Synovial cell invasion was determined using a GFR-Matrigel™ invasion assay kit (BD Biosciences, USA). Serum-starved SC were treated with peptide for 1 h, followed by stimulation with 100 ng/ml PDGF-BB at 37 °C for 22 h. After incubation, non-invading cells on the upper side of the chamber were removed and the invaded cells on the lower side of the membrane were fixed with methanol and stained with Hema Gurr® rapid staining solution (Merck Chemicals, Ltd.). Cells were counted using a light microscope at 160× magnification in 3 random fields per well of 3 separate wells.

[9] = system: recombinant human VEGFR-2; experiment: Solid phase binding assay: competition with biotinylated-VEGF165; conditions: plate-coated rhVEGFR-2-Fc; biotinylated-VEGF165 2.4 nM, 1 h room temperature; Fig. 1
Method: Ninety six-well plates were coated with the extracellular domain of recombinant human VEGFR-2 fused to the Fc domain of human IgG1 (rhVEGFR-2, R&D Systems, UK) by overnight incubation followed by blocking in 5 % bovine serum albumin/PBS. […] After washing, the biotinylated-VEGF165 was detected with avidin-horse-radish peroxidase and OPD substrate (Sigma-Aldrich, UK) followed by spectrophotometry.

VEGFR-2 [10] = experiment: Immunoblotting of VEGF165-induced VEGFR-2 phosphorylation; type: cell-based, human; conditions: 1 μM, HuDMEC, western blot; n = 3
Method: as §2

4T1 mammary tumour = experiment: Syngeneic mammary tumour model (4T1); type: in vivo, BALB/c mice
Method: 10^6 4T1 cells were subcutaneously (s.c.) implanted into the right flank of 5–6 weeks old female BALB/c mice (Charles River Laboratories, Margate, UK) and grown until the tumour size reached 100–350 mm^3. The tumour sizes were measured using callipers as described previously. Once the size of the tumours reached 100–350 mm^3, mice were randomized into control and treatment groups and injected with either vehicle alone (PBS), 0.025, 0.25 or 2.5 mg/kg of p700 peptide in PBS, either directly into the tumour (i.t.) once per week for 2 doses; or intravenously (i.v.) every other day for 5 doses. At the end of the experiment, animals were culled and tumours and normal tissues, including lung and liver, excised and fixed with 10 % neutral buffered formalin for subsequent analysis, which included general histology and quantitative measurement of microvascular density (MVD) and necrosis. For MVD measurement, rabbit-anti-mouse CD31 (AbD Serotech, Kidlington, Oxford, UK) antibody was used and sections were stained according to standard immunohistological staining protocols for formalin-fixed tissue sections. Microvessel density was estimated by measuring the percentage of CD31 positive staining in the tumour sections (15 areas per tumour slide, 7 tumour slides per group) using AnalySIS^^D image analysis software (Olympus, UK). For the necrotic area inside the tumour, tumour slides were stained with H&E. Images were measured at 200× magnification, photographed (15 areas per tumour slide, 7 tumour slides per group) and analysed by AnalySIS^^D image analysis software (Olympus, UK). Normal tissues including lung and liver were stained with H&E to study tumour metastasis. Total number of metastases per mouse was determined as the number of metastatic foci on five sections for each animal (n = 7). Incidence of metastasis was calculated as the percentage of mice with one or more metastatic nodules in the tissues. Metastasis severity was scored as follows: […], minimal (score 1 = ≤ 4 metastatic nodules), medium (score 2 = 5–7 metastatic nodules) or extensive involvement (score 3 = ≥ 8 metastatic nodules). Each nodule contained ≥5 nuclei.

HuDMEC [11] = experiment: Toxicity to HuDMEC by propidium iodide staining; type: cell-based, human; conditions: data not shown
VEGFR-1 [12] = conditions: cited from earlier work
From the text: (§3) TIMP-3 appears to bind VEGFR-2 specifically, with no inhibition of the closely related VEGFR-1, FGFR1 or PDGFR-β receptors.

PDGFR-β = conditions: cited from earlier work
From the text: as §3

FGFR1 = conditions: cited from earlier work
From the text: as §3

inhibition of EGFR (EGFR): not inhibited | inhibition of insulin-like growth factor 1 receptor phosphorylation [6]: no inhibition | ability to inhibit the binding of VEGF165 to rhVEGFR-2 [9]: able to inhibit
Molecule: KIKSCYYLPCFVTSKN (disulfide 5-10 (inferred)) [p700]
maximum inhibition of VEGF165-induced migration (HuDMEC [1]): 67% | CIA progression ([2]; 7 doses, vehicle n = 8, p700 n = 10): significantly inhibited | clinical presentation of disease (arthritis score) ([2]; p < 0.001 2-way ANOVA): reduced | hind paw inflammation (hind paw volume) ([2]; plethysmometry, p < 0.05 2-way ANOVA, AUC NS): reduced | maximum inhibition of VEGF165-induced cell proliferation (HuDMEC [3]): 40% | inhibition of VEGFR-1 phosphorylation (VEGFR-1 [4]): significant inhibition | inhibition of FGFR-1 phosphorylation (FGFR-1): significant inhibition | inhibition of PDGFR-α phosphorylation (PDGFR-α): significant inhibition | inhibition of VEGFR-3 phosphorylation (VEGFR-3): significant inhibition | inhibition of FGFR-3 phosphorylation (FGFR-3): significant inhibition | inhibition of VEGFR-2 phosphorylation (VEGFR-2 [5]): significant inhibition | inhibition of FGFR-2α phosphorylation (FGFR-2α): significant inhibition | inhibition of FGFR-4 phosphorylation (FGFR-4): significant inhibition | inhibition of HGFR phosphorylation (HGFR): no inhibition | inhibition of VEGF165-induced phosphorylation of PI3K (PI3K): approximately 50% | inhibition of VEGF165-induced HuDMEC tube formation (HuDMEC [7]): > 99% | inhibition of tubule formation in response to VEGF121 (HuDMEC [7]): > 97% | inhibition of PDGF-BB-induced tubule formation (HuDMEC [7]; HuDMEC, 1 nM PDGF-BB, 6 h, n = 3, Fig. 3b): inhibited | inhibition of bFGF-induced tubule formation (HuDMEC [7]; HuDMEC, 6 h, n = 3, Fig. 3b): inhibited | effect on tubule formation in the absence of VEGF (HuDMEC [7]; relative to untreated cells, data not shown): no effect | inhibition of PDGF-BB induced synovial cell invasion [8]: approximately 40% | inhibition of VEGF165-induced VEGFR-2 phosphorylation (VEGFR-2 [10]): approximately 50% | increased tumour necrosis (4T1 mammary tumour; H&E sections, treated group vs control): failed to reach significance | reduction in microvascular density (anti-CD31 staining) (4T1 mammary tumour; both treatment groups (i.t. and i.v.) compared to control groups, n = 7 tumours/group): approximately 50% | effect on tumour growth, intravenous dosing (4T1 mammary tumour; i.v. every 2 days, 0.25 mg/kg or above, 4T1 s.c. in BALB/c mice, n = 7): almost totally abolished tumour growth | decreased metastases (4T1 mammary tumour; lung and liver H&E sections, treated group vs control): failed to reach significance | effect on tumour growth, intra-tumour dosing (4T1 mammary tumour; weekly i.t. dose of 0.25 mg/kg, 4T1 s.c. in BALB/c mice, n = 7): almost totally abolished tumour growth

ability to inhibit the binding of VEGF165 to rhVEGFR-2 [9]: not
Molecule: GLKLEVNKYQYLLTGR [p323]

Molecule: fibrinopeptide A (ADSGEGDFLAEGGGVR; Fibrinopeptide A; UniProt P02671 20-35, looked up) [control peptide, 16 amino acid biologically inert control peptide, purchased from Bachem, reference compound]
maximum inhibition of VEGF165-induced migration (HuDMEC [1]): no significant effect | maximum inhibition of VEGF165-induced cell proliferation (HuDMEC [3]): no significant effect | inhibition of VEGF165-induced phosphorylation of PI3K (PI3K): no significant effect | inhibition of VEGF165-induced HuDMEC tube formation (HuDMEC [7]): no significant effect | inhibition of tubule formation in response to VEGF121 (HuDMEC [7]): no significant effect | concentration showing some toxicity to HuDMEC (HuDMEC [11]): ≥ 10 µM | inhibition of VEGF165-induced VEGFR-2 phosphorylation (VEGFR-2 [10]): no significant effect

ability to inhibit the binding of VEGF165 to rhVEGFR-2 [9]: able to inhibit
B1: full length TIMP-3: recombinant human tissue inhibitor of metalloproteinases-3, His-tagged, from High Five insect cells (protein)
chain: CTCSPSHPQDAFCNSDIVIRAKVVGKKLVKEGPFGTLVYTIKQMKMYRGFTKMPHVQYIHTEASESLCGLKLEVNKYQYLLTGRVYDGKMYTGLCNFVERWDQLTLSQRKGLNYRYHLGCNCKIKSCYYLPCFVTSKNECLWTDMLSNFGYPGYQSKHYACIRQKGGYCSWYRGWAPPDKSIINATDP
modifications: left off: His6, C-terminal, state not stated
inhibition of bFGF-induced tubule formation (HuDMEC [7]; HuDMEC, 6 h, n = 3, Fig. 3b): some inhibition | inhibition of VEGFR-1 (VEGFR-1 [12]): no inhibition | inhibition of PDGFR-β (PDGFR-β): no inhibition | inhibition of FGFR1 (FGFR1): no inhibition | inhibition of VEGF165-induced VEGFR-2 phosphorylation (VEGFR-2 [10]): 45%
